Test results from patent US20120015925A1, “NOVEL BENZOTHIAZEPINE AND BENZOTHIEPINE COMPOUNDS” (ASAHI KASEI PHARMA CORPORATION, priority 2004, published 2012).

Experiments:
KKA^y/Ta Jcl male mice = assay: Obesity and fatty liver model: body weight and liver triglyceride; format: in vivo, mouse; settings: for BODY WEIGHT (g) BEFORE ADMINISTRATION: 1 mg/kg group, baseline; for BODY WEIGHT (g) DIFFERENCE / BODY WEIGHT (g) TWO WEEKS / LIVER TRIGLYCERIDE: 1 mg/kg once a day for 2 weeks
Method: In the present Test Example, an obesity and fatty liver model was employed with reference to the method described in WO02/09757.
That is, KKA^y/Ta Jcl male mice at 10 weeks of age were used as obese mice (N=4 to 7). The test compound was dissolved or suspended in the aqueous solution of 1% HCO 60 (supplied from Nippon Chemicals). The aqueous solution of 1% HCO 60 (supplied from Nippon Chemicals) was used as the control. The consecutive administration was performed once a day for 2 weeks, and body weight was measured daily and compared with the body weight on the day before the administration. On the day after the final administration, the liver was removed, and a triglyceride concentration in liver tissue was measured using a measurement kit (Triglyceride Test Wako, supplied from Wako Pure Chemical Industries). The results are shown in the following Table 14 (Tables 14-1 to 14-3).

[1] = system: Wistar rats given choline-deficient food; assay: Steatohepatitis model: AST and ALT in blood; format: in vivo, rat; settings: 3 mg/kg oral once a day for 2 weeks, n = 4, average ± standard error; for AST: control group (n = 6) 180 ± 46; for ALT: control group (n = 6) 245 ± 57
Text: In the present Test Example, a steatohepatitis model was employed with reference to the method of Okan A et al. (Dig. Dis. Sci., 47:2389-2397, 2002).
That is, choline-deficient food (supplied from Oriental Yeast Co., Ltd.) was given to Wistar rats at 7 weeks of age for two weeks to prepare a steatohepatitis model. The test compound was suspended in an aqueous solution of 0.5% methylcellulose (supplied from Wako Pure Chemical Industries), and the aqueous solution of 0.5% methylcellulose (supplied from Wako Pure Chemical Industries) was used as the control. They were orally administered once a day for consecutive 2 weeks. The blood was collected from the abdominal aorta on the day after the final drug administration. AST (GOT) and ALT (GPT) in the blood were measured using the measurement kits (GOT II-HA Test Wako and GPT II Test Wako, supplied from Wako Pure Chemical Industries) with an automatic analyzer (Nitech ANALAYZER SUPER Z818).

[2] = system: rats with partial ligation of the bile duct dosed bile acid; assay: Model for hepatic disorder associated with cholestasis (partial bile duct ligation model), Protocol A: AST, ALT, ALP; format: in vivo, rat
Text: In the present Test Example, a model for the hepatic disorder caused by partial ligation of the bile duct was employed with reference to Kanno's method (Liver, 43, Suppl(1):A126, 2002).
That is, to the SD (IGS) strain male rats at 7 to 10 weeks of age, the partial ligation of the bile duct was given with opening the abdominal cavity under anesthesia with pentobarbital. Before the operation, the blood was collected from femoral vein, in order to obtain the value before the administration. From the day after the operation, 200 mg/kg of bile acid and the test compound were orally administered forcibly twice per day for 3.5 days (Protocol A). Without giving the partial ligation of the bile duct, 200 mg/kg of bile acid and the test compound were also orally administered forcibly twice per day for 3.5 days (Protocol B). In both cases, the test compound was dissolved or suspended in distilled water or an aqueous solution of 1% HCO 60 (Nippon Chemicals). To the control group, saline was administered. As comparative examples, 25 mg/kg of cholestyramine (supplied from Sigma) or 50 mg/kg of ursodeoxycholic acid (supplied from Mitsubishi Pharma) was administered. For considering the effect of the operation, sham operation (sham group) was performed in some cases. The blood was collected from the abdominal aorta 6 hours after the drug administration on the final day of the experiment. AST (GOT), ALT (GPT) and ALP in the blood were measured using measurement kits (GOT II-HA Test Wako, GPT II-HA Test Wako and Alkaline Phosphor HA Test Wako, all were supplied from Wako Pure Chemical Industries) and using an automatic analyzer (Nitech ANALAYZER SUPER Z818).

rats dosed cholic acid = assay: Lowering effect on bile acid concentrations in portal vein blood in rats dosed cholic acid; format: in vivo, rat
Method: In the present Test Example, a lowering effect on bile acid concentrations in portal vein blood in rats dosed cholic acid was evaluated according to the method described in Jpn. Pharmacol. Ther., Vol. 24 Supplement, 1996, 103(S-577)-110(S-584).
That is, SD (IGS) strain male rats at 7 to 9 weeks of age were fasted one day before the administration date. […] The blood was collected from the portal vein 2 hours after the forced oral administration, and a total bile acid value in serum was measured to examine the effect of the test compound (n=6). As a control, another group (n=6) merely received cholic acid (200 mg/kg), to which the same procedure was applied. The cholic acid value was measured using the commercially available kit (brand name: Total Bile Acid-Test Wako, supplied form Wako Pure Chemical Industries). Defining the value in the control group to which no test compound had been administered as being 100%, a reduction rate (%) of the bile acid value when a certain amount of the test compound had been administered was calculated.

[3] = system: rats fed cholesterol food; assay: Blood cholesterol lowering effect in rats fed cholesterol food; format: in vivo, rat; settings: oral, twice per day, SD (IGS) male rats, serum 3 hours after final administration
Method: In the present Test Example, a blood cholesterol lowering effect on rats fed cholesterol food was evaluated according to the method described in J. Lipid Res., 1995, 36, 1098-1105.
That is, the food containing 0.4% cholesterol and 0.5% bile acid was given to SD (IGS) strain male rats at 7 to 9 weeks of age for 5 days in advance of the test date, to increase blood cholesterol levels. The rats in which the blood cholesterol level had been obviously elevated from the level before loading the cholesterol food were selected as the subjects in the test. Colestimide (brand name: Cholebine 70% granules, supplied from Mitsubishi Tokyo Pharmaceutical Inc.) which is an anion exchange resin drug was suspended in distilled water, and the test compound was dissolved or suspended in distilled water. They were orally administered forcibly twice per day everyday from the starting date (each n=8). The blood was collected from jugular vein 3 hours after the drug administration on the final day of the experiment, and the cholesterol level in serum was measured to examine the effect of the test compound. As a control, another group (n=8) was merely fed cholesterol food, to which distilled water (1 mL/kg) was administered and the same procedure was applied. The total cholesterol value and the HDL cholesterol value were measured using commercially available kits. The value obtained by subtracting the HDL cholesterol value from the total cholesterol value was regarded as an LDL+VLDL cholesterol value.

[4] = Table 14-2, control group 44.1 ± 0.6
[5] = Table 14-2, control group 0.7 ± 0.4
[6] = Table 14-2, control group 44.8 ± 0.9
[7] = Table 14-2, control group 103 ± 19
[8] = Table 12-1, Protocol A, 1 mg/kg in 1% HCO 60, N=3, mean±standard error, control group 417 ± 185, sham 43 ± 1
[9] = Table 12-1, Protocol A, 1 mg/kg in 1% HCO 60, N=3, mean±standard error, control group 589 ± 221, sham 141 ± 26
[10] = Table 12-1, Protocol A, 1 mg/kg in 1% HCO 60, N=3, mean±standard error, control group 2318 ± 583, sham 665 ± 94
[11] = 0.1 mg/kg oral with cholic acid 200 mg/kg, portal vein serum total bile acid 2 hours after, control = 100%, surfactant HCO-60 (##)
[12] = Table 12-2, 1 mg/kg in 1% HCO 60, N=3, mean±standard error, control group 384 ± 156, sham 48 ± 5
[13] = Table 12-2, 1 mg/kg in 1% HCO 60, N=3, mean±standard error, control group 643 ± 125, sham 128 ± 18
[14] = Table 12-2, 1 mg/kg in 1% HCO 60, N=3, mean±standard error, control group 2204 ± 327, sham 630 ± 87
[15] = Table 14-1, control group 42.8 ± 0.4
[16] = Table 14-1, control group 42.0 ± 0.7
[17] = Table 14-1, control group 94 ± 18
[18] = Table 14-1, control group −0.8 ± 0.5

Structure (SMILES) | BODY WEIGHT (g) BEFORE ADMINISTRATION (KKA^y/Ta Jcl male mice; [4]) [g] | BODY WEIGHT (g) DIFFERENCE (KKA^y/Ta Jcl male mice; [5]) [g] | BODY WEIGHT (g) TWO WEEKS (KKA^y/Ta Jcl male mice; [6]) [g] | LIVER TRIGLYCERIDE (KKA^y/Ta Jcl male mice; [7]) [mg/g] | AST [1] [IU/L] | ALT [1] [IU/L] | ALT [2, 8] [IU/L] | AST [2, 9] [IU/L] | ALP [2, 10] [IU/L] | BILE ACID REDUCTION RATE (%) IN RAT MODEL WITH CHOLIC ACID LOADING (rats dosed cholic acid; [11]) [%] | LDL + VLDL REDUCTION RATE (%) IN CHOLESTEROL FED RAT MODEL (THERAPEUTIC MODEL) ([3]; 0.3 mg/kg per administration) [%] | ALT [2, 12] [IU/L] | AST [2, 13] [IU/L] | ALP [2, 14] [IU/L] | BODY WEIGHT (g) BEFORE ADMINISTRATION (KKA^y/Ta Jcl male mice; [15]) [g] | BODY WEIGHT (g) TWO WEEKS (KKA^y/Ta Jcl male mice; [16]) [g] | LIVER TRIGLYCERIDE (KKA^y/Ta Jcl male mice; [17]) [mg/g] | BODY WEIGHT (g) DIFFERENCE (KKA^y/Ta Jcl male mice; [18]) [g] | further results
C#CC[N+](C)(Cc1ccccc1)Cc1ccc(NC(=S)Nc2cccc(C3NC(CCCC)(CCCC)CS(=O)(=O)c4ccc(N(C)C)cc43)c2)cc1.[Br-] (racemic) [EXAMPLE 3448] | 44.1 ± 0.7 | -2.0 ± 0.7 | 42.1 ± 3.2 | 74 ± 8 | 134 ± 23 | 143 ± 79 | 181 ± 79 | 352 ± 210 | 1148 ± 332 | 25 | 20 |  |  |  |  |  |  |  | 
CCCCC1(CCCC)CS(=O)(=O)c2ccc(N(C)C)cc2C(c2cccc(NC(=S)Nc3ccc(C[N+]45CCC(c6ccccc6)(CC4)CC5)cc3)c2)N1.[Br-] (racemic) [EXAMPLE 3696] | 43.5 ± 1.3 | -1.3 ± 0.3 | 42.2 ± 2.2 | 76 ± 12 | 98 ± 23 | 145 ± 34 |  |  |  | 13 | 25 | 191 ± 21 | 325 ± 87 | 1209 ± 125 |  |  |  |  | 
CCCCC1(CCCC)CS(=O)(=O)c2ccc(N(C)C)cc2C(c2cccc(NC(=S)CCCCC[N+]34CCC(CC3)CC4)c2)N1.[Br-] (centres unmarked) [EXAMPLE 1, 1-{5-[3-(3,3-dibutyl-7-dimethylamino-1,1-dioxo-2,3,4,5-tetrahydro-1,4-benzothiazepine-5-yl)phenylthiocarbamoyl]pentyl}-1-azoniabicyclo[2.2.2]octane bromide] |  |  |  |  |  |  |  |  |  |  | 49 |  |  |  | 43.0 ± 0.5 | 41.0 ± 0.6 | 71 ± 13 | -1.9 ± 0.3 | ALT ([2]; Table 11, Protocol A, 0.1 mg/kg oral twice per day for 3.5 days, N=8, mean±standard error, control group 200 ± 81): 61 ± 4 IU/L; AST ([2]; Table 11, Protocol A, 0.1 mg/kg oral twice per day for 3.5 days, N=8, mean±standard error, control group 400 ± 160): 182 ± 42 IU/L; ALP ([2]; Table 11, Protocol A, 0.1 mg/kg oral twice per day for 3.5 days, N=8, mean±standard error, control group 1120 ± 410): 603 ± 78 IU/L; BILE ACID REDUCTION RATE (%) IN RAT MODEL WITH CHOLIC ACID LOADING (rats dosed cholic acid; 0.1 mg/kg oral, surfactant Tween 20 0.05%, cholic acid 200 mg/kg, portal vein blood 2 hours after administration): 51%; LDL + VLDL REDUCTION RATE (%) IN CHOLESTEROL FED RAT MODEL (THERAPEUTIC MODEL) ([3]; 1 mg/kg per administration): 68.4%
CCCCC1(CCCC)CS(=O)(=O)c2ccc(N(C)C)cc2C(c2cccc(NC(=S)Nc3ccc(C[N+](C)(C)Cc4ccccc4)cc3)c2)N1.[Br-] (centres unmarked) [EXAMPLE 3440] | 44.6 ± 0.8 | -0.7 ± 1.0 | 43.9 ± 1.8 | 88 ± 6 | 125 ± 34 | 167 ± 93 | 155 ± 38 | 309 ± 37 | 1614 ± 189 |  | 36 |  |  |  |  |  |  |  | BILE ACID REDUCTION RATE (%) IN RAT MODEL WITH CHOLIC ACID LOADING (rats dosed cholic acid; 0.1 mg/kg oral, surfactant HCO-60 0.1%, cholic acid 200 mg/kg, portal vein blood 2 hours after administration): 26%
CCCCC1(CCCC)CS(=O)(=O)c2ccc(N(C)C)cc2C(c2cccc(NC(=S)Nc3ccc(C[N+]4(Cc5ccccc5)CCC(O)CC4)cc3)c2)N1.[Br-] (centres unmarked) [EXAMPLE 3605] |  |  |  |  | 80 ± 34 | 121 ± 36 | 258 ± 219 | 487 ± 382 | 1489 ± 533 | 24 | 28 |  |  |  | 42.9 ± 1.1 | 41.4 ± 1.0 | 65 ± 7 | -1.5 ± 0.4 | 
CCCCC1(CCCC)CS(=O)(=O)c2ccc(N(C)C)cc2C(c2cccc(NC(=S)Nc3ccc(C[n+]4ccc(C(C)(C)C)cc4)cc3)c2)N1.[Br-] (centres unmarked) [EXAMPLE 3713] | 44.0 ± 1.1 | -2.5 ± 0.6 | 41.5 ± 2.4 | 59 ± 33 | 77 ± 37 | 118 ± 36 |  |  |  | 32 | 41 | 163 ± 96 | 280 ± 61 | 1008 ± 289 |  |  |  |  | 
